# Data taken from patent publication US20090286738A1, “Gene Regulation” (ST. GEORGE'S ENTERPRISES LIMITED, priority 2005, published 2009).
# What was measured:
# [1] = Stability of peptides in human plasma at 37° C., SDS-PAGE; assay type: in vitro ADME
# Protocol: Peptides were incubated in human serum for the times shown and then visualised on a Coomassie brilliant blue stained gel. The arrow heads indicate the position of intact peptide. Standard=peptide only in this lane as a marker.
# The stability of HXArg9(2D) and CX2Arg9(2D) was assessed by incubation each with human plasma at 37° C. and the amount of peptide remaining after different amounts of time was assessed by SDS-PAGE. Each peptide was added to freshly prepared human plasma to a final concentration of 1 mM in a total volume of 40 μl. Samples were incubated at 37° C. and reactions were stopped by adding 60 μl of water and 0.9 ml of protein gel loading buffer (BioRad, USA) containing 1% 2-mercaptoethanol, and heating to 95° C. for four minutes. 2 μl of each sample was run on a 22% acrylamide gel. […] This compared with a half life of approximately 40 minutes for the L isomer form HXArg9.
# [2] = system: malignant cell lines (B16 mouse melanoma, LNCAP human prostate cancer, K562); experiment: Activity of peptides on different malignant cell lines, living and dead cells after 3 hours (FIGS. 6 to 8); assay type: cell-based; conditions: further experiments
# Protocol: (§1) The peptides as indicated were applied to the cells at a concentration of 60 μM (FIG. 6A) or 6 μM (FIG. 6B). In both experiments the HXArg9, CX1Arg9 and CX2Arg9 peptides used were the (2D) variant peptides in which the N- and C-terminal amino acids are in the D conformation and all remaining amino acids are in the L conformation. The number of living and dead cells were assessed after 3 hours. Black bars=% or number of cells dead. White bars=% or number of cells alive.
# as §1, with “7A)” for “6A)”, “7B).” for “6B).”
# as §1, with “μM. HXArg9(2D) is” for “μM (FIG. 6A) or 6 μM (FIG. 6B). In both experiments”, “variant form of HXArg9 in which the N-terminal and C-terminal amino acids are in the D conformation and the remaining amino acids are in the L conformation. HXArg9 consists of only L-conformation amino acids. The” for “HXArg9,”, “bars=%” for “bars=% or number of”
# (§2) Cell lines were seeded at 4×10^4 cells/ml in liquid culture system made of RPMI-1640 medium (Life Technologies, UK) supplemented with Foetal Calf Serum (10% Sigma Aldrich) and penicillin/streptomycin (1%, Sigma) and at least in duplicate. When required the test peptide was added to the medium. Cell lines were cultured for up to 7 days at 37° C., 5% CO2 in humidified atmosphere. Cultured cells were then assessed for cell viability/enumeration using trypan blue exclusion (Sigma Aldrich).
# The activity of the peptides described above was tested on a number of different malignant cell lines using a similar assay to that described previously.
# [3] = system: B16 murine melanoma cells; experiment: Living and dead B16 cells after 3 hours (FIGS. 2A, 9); assay type: cell-based; conditions: 3 hours
# Protocol: In FIG. 2A the peptides as indicated were applied to the cells at a concentration of 60 μM. The number of living and dead cells were assessed after 3 hours. Black bars=number of cells dead. White bars=number of cells alive.
# as §1
# The HXArg9 peptide used was the (2D) variant peptide in which the N- and C-terminal amino acids are in the D conformation and all remaining amino acids are in the L conformation. HXArg9 was applied to the cells at a variety of concentrations (μM), and the number of dead and living cells was assessed after 3 hours. Black bars=% cells dead. White bars=% cells alive.
# as §2
# [4] = system: B16 tumours; experiment: Treatment of murine B16 tumours in vivo; parameters: species or system mice; conditions: 15 mg/kg intraperitoneal
# Protocol: FIG. 12. Treatment of murine B16 tumours in vivo. Mice were injected with one million B16 cells subcutaneously and treatment was started when tumours first became palpatable (day 1=first day after treatment). Mice were injected once daily for four days with an intraperitoneal dose of 15 mg/kg. (a) Changes in tumour size over treatment period (n=4). (b) Histological sections of tumours from HXArg9(2D) (HXR9) and CX2Arg9(2D) (CXR9) treated mice at the end of treatment.
# Mice were maintained at the Biological Resource Facility at St. George's. Their care was in accordance to Home Office regulations. B16 cells in exponential growth phase were injected subcutaneously at a dose of 1×10^6 cells into C57black/6 mice. Tumour growth was monitored daily. Once tumours were established, mice received 15 mg/kg HXArg9(2D) intraperitoneal. Mice were euthanised and tumours excised and fixed for histopathological analysis.
# (§3) Control groups received control peptide and PBS accordingly. For the A549 tumour model, […] were used to establish flank models. This study was conducted by Perry Scientific Inc., USA.
# The B16 F10 murine tumour is a well established in vivo model of melanoma, and is also one of the most aggressive murine tumours (Fidler, I. J. & Nicolson, G. L. Isr. J. Med. Sci. 14, 38-50 (1978), Shrayer, D. et al. Cancer Immunol Immunother. 40, 277-282 (1995)). […]
# [5] = system: HOX/PBX/DNA complexes; experiment: Band shift assay, protein extracted from treated B16 tumours; assay type: in vivo, mice; conditions: tumours treated for two hours
# Protocol: Double stranded oligodexoynucleotide probes were incubated in protein extracted from B16 tumours. One of these probes (HP) contained a HOX/PBX consensus binding region (bold)—5′ CTGTTTGATT TATTTGTTTA 3′. A second, control probe (CP) contained an altered HOX/PBX binding site that is not predicted to bind HOX and PBX proteins—5′ CTGTTACTGA CGATTGTTTA 3′. […] The mobility of CP was unchanged by incubating with the protein extract (lane 11). […] U, untreated; C, CX2Arg9(2D) treated; H, HXArg9(2D) treated; +HP, the HP probe was added to the lysates with an excess of unlabelled probe as shown (0, 5 fold, or 25 fold); +CP, control probe added to lysates; ‘+anti PBX’, anti-PBX antibody added to lysate; ‘+block pep’, a blocking peptide was added to the lysate that blocks anti-PBX antibody from binding to PBX.
# (§4) In order to assess whether the hexapeptide could block HOX/PBX binding in vivo, tumours were treated with HXArg9 for two hours and then used to produce nuclear lysates.
# [6] = system: B16 tumours; experiment: QPCR of RNA extracted from treated B16 tumours; assay type: in vivo, mice; conditions: IP 15 mg/Kg, two hours after treatment
# Protocol: FIG. 10. […] RNA extracted from (a) B16 cells cultured in vitro and treated with 60 μM peptide for two hours, and (b) B16 tumours treated with peptide injected IP at 15 mg/Kg body weight; tumours were excised and RNA was extracted two hours after treatment. Results are expressed as a proportion of the level of β-actin transcripts. For (a), the results are an average of 2 separate experiments, for (b), the results are an average for tumours taken from three individual mice. U, untreated; C, CX2Arg9(2D) treated; H, HXArg9(2D) treated. Error bars represent the standard error of the mean.
# as §4
# [7] = system: A549 tumours; experiment: Treatment of A549 tumours in vivo; parameters: species or system mice; conditions: twice weekly, 100 mg/kg followed by 10 mg/kg
# Protocol: FIG. 13. Treatment of A549 tumours in vivo. Nude mice were injected with one million A549 cells subcutaneously and treatment was started when tumours reached an average volume of 100 mm^3. […] (a) intralesional (IT) administration, (b) intraperitoneal (IP) administration.
# as §3
# We also examined whether HXArg9 could block the growth of a non-melanoma tumour in vivo. In order to do this, we established flank tumours using the non-small cell lung cancer derived cell line A549 (Lieber, M., et al. Int. J. Cancer 17, 62-70 (1976)) in nude mice.
structure (smiles),measurement,setting,value
"CSCC[C@H](NC(=O)[C@H](Cc1c[nH]c2ccccc12)NC(=O)[C@@H]1CCCN1C(=O)[C@H](Cc1ccc(O)cc1)NC(=O)[C@@H](N)Cc1c[nH]c2ccccc12)C(=O)N[C@@H](CCCCN)C(=O)N[C@@H](CCCCN)C(=O)N[C@@H](Cc1c[nH]cn1)C(=O)N[C@@H](Cc1c[nH]cn1)C(=O)N[C@@H](CCCNC(=N)N)C(=O)N[C@@H](CCCNC(=N)N)C(=O)N[C@@H](CCCNC(=N)N)C(=O)N[C@@H](CCCNC(=N)N)C(=O)N[C@@H](CCCNC(=N)N)C(=O)N[C@@H](CCCNC(=N)N)C(=O)N[C@@H](CCCNC(=N)N)C(=O)N[C@@H](CCCNC(=N)N)C(=O)N[C@@H](CCCNC(=N)N)C(=O)O [HXArg9, WYPWMKKHHRRRRRRRRR]",half-life,[1],~40 min
same,effectiveness in preventing cellular proliferation compared with HXP4,[2],as effective as HXP4
same,ablation of cells,[3]; 4.625 μM,significant ablation
same,ablation of cells,[3]; 37 μM,ablation of substantially all
same,ablation of cells,[3]; 74 μM,ablation of substantially all
same,histological analysis of excised tumours,[4],inner cell death
same,tumour size at end point,[4]; once daily for four days,significant degree of shrinkage
same,binding of tumour protein extract to HOX/PBX consensus probe,[5],could not bind a DNA probe containing a HOX/PBX consensus binding site
same,"transcripts of Fos, Jun, Dusp1 and Atf3 (QPCR)",[6],upregulated
same,tumour growth,[7],significant reduction in tumour growth
